In US8455497B2, “Inhibitors of aspartyl protease” (Vertex Pharmaceuticals Incorporated, priority 1999, dated 2013) one finds IC50 data, which are given here for 33 compounds.

pIC50: −log10 of the molar value. A value given as a limit tells only on which side of the number the result lay.

For the first assay, the system named is HIV-1 (strain IIIB). The experiment in a line: Antiviral activity assay in MT4 cells (propidium iodide based). The class given is cell-based. Conditions: Human immunodeficiency virus 1, IIIB; wild type HIV-1 virus, MT4 cells; read-out: Wildtype virus - IC50. How it is done:
Antiviral Activity Assay in MT4 Cells
Aliquots of the test compounds were serially diluted in medium (RPMI 1640, 10% fetal calf serum (FCS), and gentamycin) in 96-well plates (Costar 3598) using a Cetus Pro/Pette. Exponentially growing MT4 cells were harvested and centrifuged at 1000 rpm for 10 min in a Jouan centrifuge (model CR 4 12). Cell pellets were resuspended in fresh medium (RPMI 1640, 20% FCS, 20% IL-2, and gentamycin) to a density of 5×10^5 cells/ml. Cell aliquots were infected by the addition of HIV-1 (strain IIIB) diluted to give a viral multiplicity of infection of 100×TCID50. A similar cell aliquot was diluted with medium to provide a mock-infected control. Cell infection was allowed to proceed for 1 hr at 37° in a tissue culture incubator with humidified 5% CO2 atmosphere. After the 1 hr incubation the virus/cell suspensions were diluted 6-fold with fresh medium, and 125 μl of the cell suspension was added to each well of the plate containing pre-diluted compound. Plates were then placed in a tissue culture incubator with humidified 5% CO2 for 5 days. At the end of the incubation period, 27 μl of 5% Nonidet-40 was added to each well of the incubation plate. After thorough mixing with a Costar multitip pipetter, 60 μl of the mixture was transferred to filter-bottomed 96-well plates. The plates were analyzed in an automated assay instrument (Screen Machine, Idexx Laboratories). The assay makes use of a propidium iodide dye to estimate the DNA content of each well.
The anti-viral potency in MT-4 cells of the compounds set forth in Tables 1 and 2 was determined using the above technique.
By pIC50 is commonly meant the negative decadic logarithm of the IC50, by convention in mol/L. For the compound `Cc1cccc(C)c1OCC(=O)N[C@@H](Cc1ccc(OCc2ccccc2)cc1)[C@H](O)CN(CC(C)C)S(=O)(=O)c1ccc2c(c1)OCO2` [Compound 325, N-{(1S,2R)-3-[(1,3-Benzodioxol-5-ylsulfonyl)(isobutyl)amino]-1-[4-(benzyloxy)benzyl]-2-hydroxypropyl}-2-(2,6-dimethylphenoxy)acetamide], the pIC50 is 7.00 to 8.00. For `CC(C)CN(C[C@@H](O)[C@H](Cc1ccc(OCCN)cc1)NC(=O)O[C@H]1CO[C@H]2OCC[C@H]21)S(=O)(=O)c1ccc2c(c1)OCO2` [Compound 354, (3R,3aS,6aR)hexahydrofuro[2,3-b]furan-3-yl (1S,2R)-3-[(1,3-benzodioxol-5-ylsulfonyl)(isobutyl)amino]-2-hydroxy-1-[4-(2-aminoethoxy)benzyl]propylcarbamate], the pIC50 was 7.00 to 8.00. For the compound `Cc1cccc(C)c1OCC(=O)N[C@@H](Cc1ccc(OS(=O)(=O)c2ccc3c(c2)OCO3)cc1)[C@H](O)CN(CC(C)C)S(=O)(=O)c1ccc2c(c1)OCO2` [Compound 350, 4-((2S,3R)-4-[(1,3-benzodioxol-5-ylsulfonyl)(isobutyl)amino]-2-{[(2,6-dimethylphenoxy)acetyl]amino}-3-hydroxybutyl)phenyl 1,3-benzodioxole-5-sulfonate], the pIC50 is 7.00 to 8.00.

With `CC(C)(CCCC#N)CN(C[C@@H](O)[C@H](Cc1ccc(OCc2ccccc2)cc1)NC(=O)OC1COCOC1)S(=O)(=O)c1ccc2c(c1)OCO2` [Compound 306, 1,3-Dioxan-5-yl (1S,2R)-3-[(1,3-benzodioxol-5-ylsulfonyl)(5-cyano-2,2-dimethylpentyl)amino]-1-[4 (benzyloxy)benzyl]-2-hydroxypropylcarbamate], the negative-log IC50 (pIC50) was 7.00 to 8.00.

As for `CNC(=O)OCCCC(C)(C)CN(C[C@@H](O)[C@H](Cc1ccc(OCc2ccccc2)cc1)NC(=O)OC1CCOC1)S(=O)(=O)c1ccc2c(c1)OCO2` (stereo partly drawn) [Compound 362], the pIC50 was 7.00 to 8.00. As to `CC(C)CN(C[C@@H](O)[C@H](Cc1ccc(OCCCCN)cc1)NC(=O)O[C@H]1CO[C@H]2OCC[C@H]21)S(=O)(=O)c1ccc2c(c1)OCO2` [Compound 224, (3R,3aS,6aR)-hexahydrofuro[2,3-b]furan-3-yl (1S,2R)-1-[4-(4-aminobutoxy)benzyl]-3-[(1,3-benzodioxol-5-ylsulfonyl) (isobutyl)amino]-2-hydroxypropylcarbamate], the pIC50 was 7.00 to 8.00.

Consider `CC(C)CN(C[C@@H](O)[C@H](Cc1ccc(OCCCC(N)=O)cc1)NC(=O)O[C@H]1CO[C@H]2OCC[C@H]21)S(=O)(=O)c1ccc2c(c1)OCO2` [Compound 285, (3R,3aS,6aR)-hexahydrofuro[2,3-b]furan-3-yl (1S,2R)-1-[4-(4-amino-4-oxobutoxy)benzyl]-3-[(1,3-benzodioxol-5-ylsulfonyl)(isobutyl)amino]-2-hydroxypropylcarbamate], for which the pIC50 was 7.00 to 8.00.

Still in this assay, the particulars now being: Human immunodeficiency virus 1, MT4, 120 h; MT-4 cells, HIV-1 strain IIIB, 5 days; read-out: IC50 (Antiviral Activity of Compounds of the Invention).
As for `CC(C)CN(C[C@@H](O)[C@H](Cc1ccc(OCC(=O)N2CCOCC2)cc1)NC(=O)O[C@H]1CO[C@H]2OCC[C@H]21)S(=O)(=O)c1ccc2c(c1)OCO2` [Compound 50, Bis-THF Methylenedioxybenzenesulfonamide Acetylmorpholine Tethered Product], the negative logarithm of the IC50 (pIC50) is 7.00 to 8.00. For the compound `Cc1cc(C)n(COc2ccc(C[C@H](NC(=O)O[C@H]3CO[C@H]4OCC[C@H]43)[C@H](O)CN(CC(C)C)S(=O)(=O)c3ccc4c(c3)OCO4)cc2)n1` [Compound 56, Bis-THF Methylenedioxybenzenesulfonamide 1-methyl-3,5-dimethylpyrazole Tethered Product], the pIC50 is 7.00 to 8.00. As for `COCCN(CCOC)CCOc1ccc(C[C@H](NC(=O)O[C@H]2CO[C@H]3OCC[C@H]32)[C@H](O)CN(CC(C)C)S(=O)(=O)c2ccc3c(c2)OCO3)cc1` [Compound 51, Bis-THF Methylenedioxybenzenesulfonamide Bis-Methoxyethylamine Tethered Product], the pIC50 is 8.00 to 9.00. For the compound `CC(C)CN(C[C@@H](O)[C@H](Cc1ccc(OCCn2cccn2)cc1)NC(=O)O[C@H]1CO[C@H]2OCC[C@H]21)S(=O)(=O)c1ccc2c(c1)OCO2` [Compound 57, Bis-THF Methylenedioxybenzenesulfonamide Ethylpyrazole Tethered Product], the pIC50 is 8.00 to 9.00.

The same assay, now with this note: MT-4 cells, HIV-1 strain IIIB, 5 days; read-out: IC50 (Antiviral Activity of Compounds of the Invention).
Consider `COCCN(CCOC)CCOc1ccc(CC(NC(=O)OC2CCOC2)C(O)CN(CC(C)(C)CCC#N)S(=O)(=O)c2ccc3c(c2)OCO3)cc1` (stereo not drawn) [Compound 69], for which the pIC50 is under 7.00. On to `COCCN(CCOC)CCOc1ccc(CC(NC(=O)OC2CCOC2)C(O)CN(CC(C)(C)CCC#N)S(=O)(=O)c2ccc(N)cc2)cc1` (stereo not drawn) [Compound 70], for which the pIC50 was under 7.00. On to `COCCN(CCOC)CCOc1ccc(CC(NC(=O)OC2COC3OCCC23)C(O)CN(CC(C)C)S(=O)(=O)c2ccc(N)cc2)cc1` (stereo not drawn) [Compound 27], for which the pIC50 is under 7.00.

For `Cc1cc(COc2ccc(CC(NC(=O)OC3COC4OCCC34)C(O)CN(CC(C)C)S(=O)(=O)c3cccc(N)c3)cc2)no1` (stereo not drawn) [Compound 35], the pIC50 was 7.00 to 8.00.

With `CC(C)CN(CC(O)C(Cc1ccc(OCCCN2CCOCC2)cc1)NC(=O)OC1COC2OCCC12)S(=O)(=O)c1ccc(N)cc1` (stereo not drawn) [Compound 30], the pIC50 was 7.00 to 8.00. With `COCCN(CCOC)CCOc1ccc(CC(NC(=O)OC(C)(C)C)C(O)CN(CC(C)C)S(=O)(=O)c2cccc(N)c2)cc1` (stereo not drawn) [Compound 13], the pIC50 was under 7.00.

Consider `CC(C)(CCC#N)CN(CC(O)C(Cc1ccc(OCc2ccccc2)cc1)NC(=O)OC1COC2OCCC12)S(=O)(=O)c1ccc2c(c1)OCO2` (stereo not drawn) [Compound 72], for which the negative logarithm of the IC50 (pIC50) is 8.00 to 9.00. `CC(C)CN(CC(O)C(Cc1ccc(O)cc1)NC(=O)OC1COC2OCCC12)S(=O)(=O)c1ccc(N)cc1` (stereo not drawn) [Compound 32]: the negative-log IC50 (pIC50) is 7.00 to 8.00. On the same count and under the same terms, the result for `COCCN(CCOC)CCOc1ccc(CC(NC(=O)OC(C)(C)C)C(O)CN(CC(C)(C)CCC#N)S(=O)(=O)c2ccc(N)cc2)cc1` (stereo not drawn) [Compound 67] reads under 7.00. Same read-out and setting: then `CC(C)CN(CC(O)C(Cc1ccc(OCCN2CCOCC2)cc1)NC(=O)OC1COC2OCCC12)S(=O)(=O)c1ccc(N)cc1` (stereo not drawn) [Compound 29], with 7.00 to 8.00.

Still in this assay, the particulars now being: wild type HIV-1 virus, MT4 cells; read-out: Wildtype virus - IC50.
As for `CC(C)CN(C[C@@H](O)[C@H](Cc1ccc(OCCCNC(=O)N(C)C)cc1)NC(=O)O[C@H]1CO[C@H]2OCC[C@H]21)S(=O)(=O)c1ccc2c(c1)OCO2` [Compound 254], the pIC50 was 8.00 to 9.00.

On to `CC(C)CN(C[C@@H](O)[C@H](Cc1ccc(OCc2ccsc2)cc1)NC(=O)O[C@H]1CO[C@H]2OCC[C@H]21)S(=O)(=O)c1ccc2c(c1)OCO2` [Compound 207], for which the negative-log IC50 (pIC50) was 8.00 to 9.00. Consider `CC(C)CN(C[C@@H](O)[C@H](Cc1ccc(OCCc2ccsc2)cc1)NC(=O)O[C@H]1CO[C@H]2OCC[C@H]21)S(=O)(=O)c1ccc2c(c1)OCO2` [Compound 208], for which the negative logarithm of the IC50 (pIC50) is 7.00 to 8.00. For `CCOC(=O)NCCOc1ccc(C[C@H](NC(=O)O[C@H]2CO[C@H]3OCC[C@H]32)[C@H](O)CN(CC(C)C)S(=O)(=O)c2ccc3c(c2)OCO3)cc1` [Compound 245], the negative logarithm of the IC50 (pIC50) was 8.00 to 9.00. Same read-out and setting: then `CC(C)CN(C[C@@H](O)[C@H](Cc1ccc(OCCc2ccc(C#N)cc2)cc1)NC(=O)O[C@H]1CO[C@H]2OCC[C@H]21)S(=O)(=O)c1ccc2c(c1)OCO2` [Compound 215], with 8.00 to 9.00. In the case of `CC(C)CC(=O)NCCCOc1ccc(C[C@H](NC(=O)O[C@H]2CO[C@H]3OCC[C@H]32)[C@H](O)CN(CC(C)C)S(=O)(=O)c2ccc3c(c2)OCO3)cc1` [Compound 231], the pIC50 is 8.00 to 9.00. For `CC(C)CN(C[C@@H](O)[C@H](Cc1ccc(OCCc2cccs2)cc1)NC(=O)O[C@H]1CO[C@H]2OCC[C@H]21)S(=O)(=O)c1ccc2c(c1)OCO2` [Compound 209], the pIC50 was 8.00 to 9.00. As for `CC(C)CN(C[C@@H](O)[C@H](Cc1ccc(OCCCCNS(C)(=O)=O)cc1)NC(=O)O[C@H]1CO[C@H]2OCC[C@H]21)S(=O)(=O)c1ccc2c(c1)OCO2` [Compound 252], the pIC50 is 8.00 to 9.00. As for `N#Cc1cccc(COc2ccc(C[C@H](NC(=O)O[C@H]3CO[C@H]4OCC[C@H]43)[C@H](O)CN(CC3CCCC3)S(=O)(=O)c3ccc4c(c3)OCO4)cc2)c1` [Compound 396, (3R,3aS,6aR)-hexahydrofuro[2,3-b]furan-3-yl (1S,2R)-3-[(1,3-benzodioxol-5-ylsulfonyl)(cyclopentylmethyl)amino-]-1-{4-[(3-cyanobenzyl)oxy]benzyl}-2-hydroxypropylcarbamate], the pIC50 is 8.00 to 9.00. On to `CC(C)CN(C[C@@H](O)[C@H](Cc1ccc(OCCCNC(=O)C(C)(C)C)cc1)NC(=O)O[C@H]1CO[C@H]2OCC[C@H]21)S(=O)(=O)c1ccc2c(c1)OCO2` [Compound 232], for which the pIC50 is 8.00 to 9.00. On to `CC(C)CN(C[C@@H](O)[C@H](Cc1ccc(OCc2ccc(-c3csnn3)cc2)cc1)NC(=O)O[C@H]1CO[C@H]2OCC[C@H]21)S(=O)(=O)c1ccc2c(c1)OCO2` [Compound 374], for which the pIC50 is 8.00 to 9.00. Still for that read-out and setting: then `CC(C)CN(C[C@@H](O)[C@H](Cc1ccc(OCCNC(=O)OC(C)C)cc1)NC(=O)O[C@H]1CO[C@H]2OCC[C@H]21)S(=O)(=O)c1ccc2c(c1)OCO2` [Compound 248], with 8.00 to 9.00.
